Reference: US20230095912A1, “Composition and Methods for Selective Degradation of Engineered Proteins” (Celgene Corporation, priority 2021, published 2023)
Like-named read-outs stand apart in the source and are kept apart here.

How the values were obtained:
[1] = molecular target: T1, CD19 CARs tagged with IKZF1 ZNF2_ZNF3 Q1F (Homo sapiens, UniProt Q13422, Q146F); experiment: Small-molecule screen: Q1F degron-tagged CD19 CAR levels in Jurkat cells, flow cytometry; type: cell-based
T1 construct: EC50 (Q1F degron); other: Jurkat cells, 18 hours, CAR levels normalized to no drug; Ymin (Q1F degron); Ymin (%); minimum percent protein remaining; Nluc reporter
T1 sequence (Q13422 whole entry Q146F): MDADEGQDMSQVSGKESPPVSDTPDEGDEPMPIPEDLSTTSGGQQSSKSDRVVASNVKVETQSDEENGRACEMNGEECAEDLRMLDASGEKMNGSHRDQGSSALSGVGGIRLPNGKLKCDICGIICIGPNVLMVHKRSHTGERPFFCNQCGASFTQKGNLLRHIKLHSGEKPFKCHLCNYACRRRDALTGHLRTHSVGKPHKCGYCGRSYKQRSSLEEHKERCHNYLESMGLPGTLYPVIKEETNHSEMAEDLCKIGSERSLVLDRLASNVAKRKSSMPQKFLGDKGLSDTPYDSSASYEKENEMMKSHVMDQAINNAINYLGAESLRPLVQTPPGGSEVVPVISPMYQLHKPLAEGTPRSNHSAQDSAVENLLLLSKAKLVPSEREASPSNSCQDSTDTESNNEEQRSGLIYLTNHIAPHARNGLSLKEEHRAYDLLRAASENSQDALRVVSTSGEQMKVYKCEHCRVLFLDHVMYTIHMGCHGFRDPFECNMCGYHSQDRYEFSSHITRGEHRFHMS
Description: A set of potential degron-targeting compounds was screened against the Q1F degron, resulting in a set of potent degron/small-molecule pairs. Lentiviral vectors containing CD19 CARs tagged with IKZF1 ZNF2_ZNF3 Q1F Nluc were transduced into Jurkat cells. The CD19 CAR was similar to the CD19 CAR in Example 2, but comprising the ZNF2_ZNF3 Q1F degron (SEQ ID NO: 19). Transduced cells were treated with a titration of each small molecule or no drug and then incubated at 37° C. for 18 hours. Cells were washed and stained with appropriate staining reagent to measure CAR levels. The cells were incubated at 4° C. in the staining reagents for 20 mins and then washed 3 times before being read on the flow cytometer. CAR levels were normalized to cells that had not been treated with drug. EC50 and Ymin values were calculated using the resulting titration curve. This identified small molecules that potently degraded the Q1F degron-tagged CARs (Table 1).

Helios = molecular target: T2, Helios (Homo sapiens, UniProt Q96SW2+Q9UKS7); experiment: Helios HiBit degradation in Jurkat cells; type: cell-based
T2 construct: endogenous in cells; host or cells: Jurkat/Helios/HiBit cells (CRISPR/Cas9 knock-in)
T2 sequence (Q9UKS7 whole entry): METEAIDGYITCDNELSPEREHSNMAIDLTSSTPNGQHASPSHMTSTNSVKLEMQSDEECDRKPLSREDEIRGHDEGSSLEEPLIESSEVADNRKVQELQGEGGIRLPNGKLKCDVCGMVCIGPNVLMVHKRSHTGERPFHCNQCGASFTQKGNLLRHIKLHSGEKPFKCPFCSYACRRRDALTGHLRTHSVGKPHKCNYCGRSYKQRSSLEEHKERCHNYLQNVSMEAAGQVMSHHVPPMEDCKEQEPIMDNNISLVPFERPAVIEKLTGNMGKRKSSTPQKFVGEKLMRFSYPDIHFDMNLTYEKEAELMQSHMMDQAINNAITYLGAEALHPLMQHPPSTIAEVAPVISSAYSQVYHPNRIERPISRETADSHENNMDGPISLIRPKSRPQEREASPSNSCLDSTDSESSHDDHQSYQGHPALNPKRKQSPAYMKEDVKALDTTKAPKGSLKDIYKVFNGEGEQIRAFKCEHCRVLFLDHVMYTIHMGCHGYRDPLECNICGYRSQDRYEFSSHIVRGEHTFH
T2 sequence (Q96SW2 whole entry): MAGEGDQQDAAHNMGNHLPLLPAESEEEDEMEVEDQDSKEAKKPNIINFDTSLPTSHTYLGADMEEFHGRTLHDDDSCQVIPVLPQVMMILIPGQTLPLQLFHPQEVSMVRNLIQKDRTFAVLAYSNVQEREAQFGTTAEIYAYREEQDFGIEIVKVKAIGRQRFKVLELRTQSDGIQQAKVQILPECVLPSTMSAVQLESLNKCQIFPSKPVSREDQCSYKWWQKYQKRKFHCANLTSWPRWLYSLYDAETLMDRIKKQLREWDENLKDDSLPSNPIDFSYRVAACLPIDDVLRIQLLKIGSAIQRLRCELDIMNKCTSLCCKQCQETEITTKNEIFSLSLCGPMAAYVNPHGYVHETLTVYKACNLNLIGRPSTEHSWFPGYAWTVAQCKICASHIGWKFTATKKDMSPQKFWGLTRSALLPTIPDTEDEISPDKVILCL
T2 sequence (Q16531 whole entry partner): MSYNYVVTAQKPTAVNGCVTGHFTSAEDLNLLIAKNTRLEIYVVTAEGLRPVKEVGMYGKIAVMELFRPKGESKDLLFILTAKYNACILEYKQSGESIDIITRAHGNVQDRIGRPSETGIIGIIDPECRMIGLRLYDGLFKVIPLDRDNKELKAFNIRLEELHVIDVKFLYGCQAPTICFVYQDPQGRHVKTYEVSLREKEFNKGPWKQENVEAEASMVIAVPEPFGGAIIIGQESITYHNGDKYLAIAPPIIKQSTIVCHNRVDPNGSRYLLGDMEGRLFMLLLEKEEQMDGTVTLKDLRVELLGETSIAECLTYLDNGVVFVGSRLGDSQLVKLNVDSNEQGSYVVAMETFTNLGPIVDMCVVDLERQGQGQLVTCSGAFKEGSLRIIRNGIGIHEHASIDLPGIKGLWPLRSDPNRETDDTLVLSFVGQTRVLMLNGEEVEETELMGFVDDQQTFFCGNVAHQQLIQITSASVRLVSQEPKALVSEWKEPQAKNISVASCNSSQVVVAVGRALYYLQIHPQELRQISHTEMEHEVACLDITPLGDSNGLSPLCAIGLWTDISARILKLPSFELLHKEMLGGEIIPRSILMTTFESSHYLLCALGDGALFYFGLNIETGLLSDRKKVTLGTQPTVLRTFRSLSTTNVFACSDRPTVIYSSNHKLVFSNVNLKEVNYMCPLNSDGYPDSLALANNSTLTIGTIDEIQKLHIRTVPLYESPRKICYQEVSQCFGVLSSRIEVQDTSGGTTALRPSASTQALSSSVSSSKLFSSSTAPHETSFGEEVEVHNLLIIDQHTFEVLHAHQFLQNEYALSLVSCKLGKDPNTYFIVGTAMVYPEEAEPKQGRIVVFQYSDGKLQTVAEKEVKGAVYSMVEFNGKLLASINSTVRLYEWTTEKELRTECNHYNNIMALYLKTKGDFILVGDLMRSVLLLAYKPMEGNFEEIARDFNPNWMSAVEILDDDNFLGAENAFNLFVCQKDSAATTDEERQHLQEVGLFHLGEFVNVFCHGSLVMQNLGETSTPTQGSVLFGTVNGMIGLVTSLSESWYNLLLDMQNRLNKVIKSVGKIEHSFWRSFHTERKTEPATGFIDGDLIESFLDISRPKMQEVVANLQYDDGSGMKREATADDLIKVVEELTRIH
Description: For Helios, a stable Jurkat cell line was engineered using CRISPR/Cas9 to insert an in-frame HiBit tag into the carboxy-terminal reading frame of the IKZF2 gene. Test compounds were transferred to 1536 well plates using an acoustic dispenser, and Jurkat/Helios/HiBit cells in DMEM/10% FCS were plated at 10,000 cells/well in a final volume of 5 ul. Cells were incubated at 37C, 95% RH for 18 hr. Luciferase activity was measured by adding 2 ul/well of Nano-Glo reagent (Promega), incubating at RT for 30 min, and reading luminescence on a microtiter plate reader.
All substrate degradation curves were processed and evaluated using ActivityBase (IDBS), a data analysis software package. Ymin is minimum percent protein remaining.

[2] = test system: IKZF1 ZNF2_3 Q1F tagged CD19 CAR; experiment: Jurkat reporter assay (tdTomato), signaling of Q1F-tagged CAR after degradation; type: cell-based, human; settings: 1 mM pre-treatment 12 hours, co-culture with CD19-expressing K562 8 hours
Description: A lentiviral vector encoding ZNF2_3 Q1F or Q1F/G6N tagged CD19 CAR was transduced into the reporter cell line. […] Levels of tdTomato in the form of the overall percent of positive cells (FIG. 12A), as well as mean fluorescence intensity (MFI, FIG. 12B) were assessed by flow cytometry. Degradation of CARs containing the ZNF2_3 Q1F degron decreased signaling by around 30% using 1 mM Compound C and by around 75% using Compound B; this relative difference correlates with the depth of degradation seen for each. Further, the reduction in activity depends upon having an intact G-motif, as the G6N mutation prevents inhibition.

Ymin (%) ([1]; Degron Q1F (from Table 1), minimum percent protein remaining): 12%
DC50 ([1]; Degron Q1F (from Table 1), read-out: EC50 (the source's name)): 23 nM
DC50 ([1]; Jurkat assay described in Example 5, read-out: EC50 for the Q1F degron): < 25 nM
Ymin (Q1F degron) ([1]; Jurkat cells, 18 hours, CAR levels normalized to no drug): 12%
DC50 ([1]; Jurkat cells, 18 hours, CAR levels normalized to no drug, read-out: EC50 (Q1F degron)): 23 nM
Ymin (%) (Helios): 86%
DC50 (Helios; Helios, Jurkat/Helios/HiBit cells, 18 hr, read-out: EC50 (the source's name)): > 10 µM
SMILES: Cc1ncccc1N1CCN(Cc2ccc3c(c2)CN(C2CCC(=O)NC2=O)C3=O)CC1 (centres unmarked) [Compound C, 3-(5-((4-(2-methylpyridin-3-yl)piperazin-1-yl)methyl)-1-oxoisoindolin-2-yl)piperidine-2,6-dione]
decrease of signaling (tdTomato reporter) [2]: around 30%
